Measurements from article PMC2873402, “Discovery of High-Affinity Protein Binding Ligands – Backwards” (PLoS ONE, 2010).

Assays:
[1] = target: synbody variant in which the C-terminal Cys was replaced with a Lys-Biotin; assay: pull-down; IP: biotin synbody on streptavidin magnetic beads; ^35S-labeled AKT1 in the IVT mixture diluted from 41.5 nM to 80 pM (AKT1 about 3% of total protein); liquid scintillation counting; 1:1 fit in GraphPad Prism
[2] = target: AKT1 (Homo sapiens, UniProt P31749); assay: AKT1 binding site mapping by crosslinking and MS; parameters: N-terminal vector leader of pEXP5-NT (6xHis + TEV site by own knowledge of the vector); made in house; host or cells: Expressway Mini Cell-Free Expression System (in vitro translation); conditions: for region of AKT1 crosslinked: 10 µM peptide, 2.5 µM AKT1, 100 µM BS3-d0/d4 (1:1), trypsin, MALDI-TOF-MS; for likely binding site on AKT1: from relative intensity of fragments and proximity of lysines; for AKT1 lysine(s) likely cross-linked: surface-exposed lysines mapped on PDB 3CQU
Source text: As an orthogonal assessment of whether the peptides bind different sites on AKT1, each peptide was crosslinked to AKT1 in vitro using a commercially available set of deuterated / non-deuterated crosslinkers (BS^3-(d0/d4)). The crosslinkers chemically conjugate primary amines that are in close proximity to one another (11.4 Å) and the crosslinked complex is then subjected to enzymatic digestion and analysis by mass spectrometry. Crosslinked peptides are identified by the presence of a pair of ions that are separated by 4 mass units indicating crosslinking with both non-deuterated and deuterated crosslinkers. Peptide 1 has two possible crosslinking sites (N-terminus and K at position 3) and peptide 2 has one possible crosslinking site at the N-terminus. A 10 µM solution of each peptide was added to 2.5 µM AKT1 and incubated for 1 hour prior to the addition of a 100 µM solution of a 1∶1 mixture of crosslinkers. After crosslinking, the mixture was digested with trypsin and analyzed by MALDI-TOF-MS. […] The location of each AKT1 fragment was mapped onto a crystal structure of residues 139–480 of AKT1 (PDB #3CQU) (Figure 4C).
10 µM of peptide 1 and peptide 2 were individually incubated with 2.5 µM of recombinant AKT1 (produced in house) in PBS buffer (200 uL total volume) for one hour, after which an equimolar ratio of BS^3-d0∶BS^3-d4 (Thermo Scientific, Rockford, IL) crosslinker was added for a total crosslinker concentration of 100 µM. The same concentration of crosslinker was added to a 200 µL control sample containing only 2.5 µM AKT1. Crosslinking was performed for one hour. After crosslinking, free peptide and crosslinker were removed from the mixture with a 30 kDa spin filter and at the same time the buffer was exchanged with 100 mM ammonium bicarbonate pH 8.0. Proteomics grade trypsin (Sigma-Aldrich, St. Louis, MO) was added to all samples at a ratio of 1∶30 (mol∶mol) Trypsin∶AKT1 and incubated overnight at 37°C. Digested samples were lyophilized and reconstituted in 5 µL acetonitrile∶H2O (1∶1) containing 0.1% trifluoroacetic acid and spotted on a MALDI target plate along with ∝-cyano-4-hydroxycinnamic acid MALDI matrix. Mass spectra were obtained on an Ultraflex-III MALDI TOF-TOF (Bruker, Billerica, MA) and analyzed in FlexAnalysis (Bruker, Billerica, MA).

Chain of AKT1 (P31749 whole entry, the tested form may be a part): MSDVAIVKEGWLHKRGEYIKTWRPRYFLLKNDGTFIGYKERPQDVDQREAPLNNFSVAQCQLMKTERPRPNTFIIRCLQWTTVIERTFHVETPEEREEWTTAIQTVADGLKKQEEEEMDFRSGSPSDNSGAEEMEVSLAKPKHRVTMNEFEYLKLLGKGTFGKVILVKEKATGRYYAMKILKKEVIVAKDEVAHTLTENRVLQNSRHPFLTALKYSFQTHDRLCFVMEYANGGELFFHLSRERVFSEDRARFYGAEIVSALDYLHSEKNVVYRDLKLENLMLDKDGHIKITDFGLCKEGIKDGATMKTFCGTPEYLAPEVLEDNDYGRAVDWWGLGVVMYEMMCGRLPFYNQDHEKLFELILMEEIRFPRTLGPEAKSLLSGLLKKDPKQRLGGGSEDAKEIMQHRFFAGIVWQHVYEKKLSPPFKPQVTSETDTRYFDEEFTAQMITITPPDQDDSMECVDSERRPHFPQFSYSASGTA
Chain of ^35S-labeled AKT1 produced by in vitro translation (P31749 whole entry): as the sequence (P31749 whole entry, the tested form may be a part) above

Kd [1] | Substance | region of AKT1 crosslinked [2] | likely binding site on AKT1 [2] | AKT1 lysine(s) likely cross-linked [2]
4.9 nM | ^35S-labeled AKT1 produced by in vitro translation (from UniProt P31749 1-480) (natural protein) | – | – | –
– | AHKVVPQRQIRHAYNRYGSG [peptide 1, 20-aa peptide arm of the synbody] | crosslinked to a region of AKT1 that spans the Protein Kinase (PK) and AGC Kinase domain | in a region of low homology between AKT1, AKT2, and AKT3 | ^419Lys
– | FRGWAHIFFGPHVIYRGGSG [peptide 2, 20-aa peptide arm of the synbody] | crosslinked to multiple regions on AKT1 (Figure 4A, Figure 4B, Table S1), with the majority of crosslinking occurring in the PK domain | primary binding site for peptide 2 is likely on the PK domain and that a secondary binding site lies on the AGC domain | ^182Lys, ^276Lys, and ^481Lys
